Measured values published in patent publication US11058680B2, “Combinations of opioid/TLR4 antagonists and acetaminophen for use in the treatment of emotional pain and insomnia” (Allodynic Threapeutics, LLC, priority 2016, dated 2021).

Columns and labels:
Type in all cases: in vivo, human
[1] = test system: patient with post herpetic neuralgia, chronic lower back pain and anger with spouse; test: Example 8 case study; settings: naltrexone 5 mg/clonidine 0.025 mg twice daily; naltrexone 5 mg twice daily; naltrexone 2.25 mg and acetaminophen 325 mg four times daily
[2] = test system: patient with chronic migraines, lower back pain and anger with spouse; test: Example 9 case study; settings: naltrexone 5 mg twice daily for 14 months
Text: For 30 years they and their retired spouse were always together.

[3] = Migraine open-label pilot study: side effects (AEs present) at each time point
Procedure: The majority of the patients remained in the clinic for observation for 2 hours after dosing. […] Headache pain was assessed on a 4-point scale (0=none; 1=mild; 2=moderate; 3=severe). The assessment of photophobia, phonophobia, nausea, and neck/shoulder pain was assessed as present or absent. The assessment of emotional pain was recorded on a 4-point scale (0=none, 1=mild, 2=moderate, 3=severe). The assessment of difficulty sleeping or falling asleep (insomnia) was assessed on a 4-point scale (0=none, 1=mild, 2=moderate, 3=severe) at baseline, for the night before treatment and for the following nights at 24, and 48 hours. Patients recorded side effects severity at each time point. Patients recorded the time of the first rescue medication dose and all additional headache medications used within 48 hours. Patients were required to stay awake to record their assessments in the first 2 hours, sleeping was permitted thereafter. While asleep, assessments were completed according to patients' best estimation. For data analysis, it was assumed that a migraine attack is a unique patient. Patients were asked to specify (yes or no answer) to whether they experienced emotional pain symptoms such as: hurt feelings, sadness, fear, or anger. Patients who replied positively to having emotional pain were asked to specify the cause into one of the following options: relationship, work/school, money/debt, health, or loss/grief.

O=C1CC[C@@]2(O)[C@H]3Cc4ccc(O)c5c4[C@@]2(CCN3CC2CC2)[C@H]1O5 [naltrexone]
mean average pain intensity [1]: 1.5 /10
lower back pain diminished by [2]: 90%
migraine intensity and frequency lessened by [2]: 90%
AEs present ([3]; 7 min, NTX/APAP 2.25 mg/325 mg, NTX 2.25 mg): 0 (0)
AEs present ([3]; 7 min, NTX/APAP 3.25 mg/325 mg, NTX 3.25 mg): 0
AEs present ([3]; 7 min, NTX/APAP 5 mg/325 mg, NTX 5 mg): 1
AEs present ([3]; 7 min, all doses combined): 1 (16)
AEs present ([3]; 15 min, NTX/APAP 2.25 mg/325 mg, NTX 2.25 mg): 1 (11)
AEs present ([3]; 15 min, NTX/APAP 3.25 mg/325 mg, NTX 3.25 mg): 0
AEs present ([3]; 15 min, NTX/APAP 5 mg/325 mg, NTX 5 mg): 0
AEs present ([3]; 15 min, NTX/APAP […]325 mg, NTX 1.5 mg): 0
AEs present ([3]; 15 min, all doses combined): 2 (13)
AEs present ([3]; 30 min, NTX/APAP 2.25 mg/325 mg, NTX 2.25 mg): 1 (11)
AEs present ([3]; 30 min, NTX/APAP 3.25 mg/325 mg, NTX 3.25 mg): 2 (66)
AEs present ([3]; 30 min, NTX/APAP 5 mg/325 mg, NTX 5 mg): 1 (100)
AEs present ([3]; 30 min, NTX/APAP […]325 mg, NTX 1.5 mg): 0 (0)
AEs present ([3]; 30 min, all doses combined): 4 (25)
AEs present ([3]; 1 h, NTX/APAP 2.25 mg/325 mg, NTX 2.25 mg): 1 (11)
AEs present ([3]; 1 h, NTX/APAP 3.25 mg/325 mg, NTX 3.25 mg): 1
AEs present ([3]; 1 h, NTX/APAP 5 mg/325 mg, NTX 5 mg): 1
AEs present ([3]; 1 h, NTX/APAP […]325 mg, NTX 1.5 mg): 0
AEs present ([3]; 1 h, all doses combined): 3 (19)
AEs present ([3]; 90 min, NTX/APAP 2.25 mg/325 mg, NTX 2.25 mg): 0 (0)
AEs present ([3]; 90 min, NTX/APAP 3.25 mg/325 mg, NTX 3.25 mg): 1 (33)
AEs present ([3]; 90 min, NTX/APAP 5 mg/325 mg, NTX 5 mg): 1 (100)
AEs present ([3]; 90 min, NTX/APAP […]325 mg, NTX 1.5 mg): 0 (0)
AEs present ([3]; 90 min, all doses combined): 2 (13)
AEs present ([3]; 2 h, NTX/APAP 2.25 mg/325 mg, NTX 2.25 mg): 0 (0)
AEs present ([3]; 2 h, NTX/APAP 3.25 mg/325 mg, NTX 3.25 mg): 1 (33)
AEs present ([3]; 2 h, NTX/APAP 5 mg/325 mg, NTX 5 mg): 1
AEs present ([3]; 2 h, NTX/APAP […]325 mg, NTX 1.5 mg): 0 (0)
AEs present ([3]; 2 h, combined doses): 2 (13)
AEs present ([3]; 3 h, NTX/APAP 2.25 mg/325 mg, NTX 2.25 mg): 0 (0)
AEs present ([3]; 3 h, NTX/APAP 3.25 mg/325 mg, NTX 3.25 mg): 1 (33)
AEs present ([3]; 3 h, NTX/APAP 5 mg/325 mg, NTX 5 mg): 1
AEs present ([3]; 3 h, NTX/APAP […]325 mg, NTX 1.5 mg): 0
AEs present ([3]; 3 h, combined doses): 2 (13)
AEs present ([3]; 4 h, NTX/APAP 2.25 mg/325 mg, NTX 2.25 mg): 0 (0)
AEs present ([3]; 4 h, NTX/APAP 3.25 mg/325 mg, NTX 3.25 mg): 1 (33)
AEs present ([3]; 4 h, NTX/APAP 5 mg/325 mg, NTX 5 mg): 1
AEs present ([3]; 4 h, NTX/APAP […]325 mg, NTX 1.5 mg): 0
AEs present ([3]; 4 h, combined doses): 2 (13)
AEs present ([3]; 6 h, NTX/APAP 2.25 mg/325 mg, NTX 2.25 mg): 0 (0)
AEs present ([3]; 6 h, NTX/APAP 3.25 mg/325 mg, NTX 3.25 mg): 1 (33)
AEs present ([3]; 6 h, NTX/APAP 5 mg/325 mg, NTX 5 mg): 1
AEs present ([3]; 6 h, NTX/APAP […]325 mg, NTX 1.5 mg): 0
AEs present ([3]; 6 h, combined doses): 2 (13)
AEs present ([3]; 12 h, NTX/APAP 2.25 mg/325 mg, NTX 2.25 mg): 0 (0)
AEs present ([3]; 12 h, NTX/APAP 3.25 mg/325 mg, NTX 3.25 mg): 1 (33)
AEs present ([3]; 12 h, NTX/APAP 5 mg/325 mg, NTX 5 mg): 1
AEs present ([3]; 12 h, NTX/APAP […]325 mg, NTX 1.5 mg): 0
AEs present ([3]; 12 h, combined doses): 2 (13)
AEs present ([3]; 24 h, NTX/APAP 2.25 mg/325 mg, NTX 2.25 mg): 0
AEs present ([3]; 24 h, NTX/APAP 3.25 mg/325 mg, NTX 3.25 mg): 1 (33)
AEs present ([3]; 24 h, NTX/APAP 5 mg/325 mg, NTX 5 mg): 1
AEs present ([3]; 24 h, NTX/APAP […]325 mg, NTX 1.5 mg): 0
AEs present ([3]; 24 h, combined doses): 2 (13)
AEs present ([3]; 48 h, NTX/APAP 2.25 mg/325 mg, NTX 2.25 mg): 0 (0)
AEs present ([3]; 48 h, NTX/APAP 3.25 mg/325 mg, NTX 3.25 mg): 1 (33)
AEs present ([3]; 48 h, NTX/APAP 5 mg/325 mg, NTX 5 mg): 0
AEs present ([3]; 48 h, NTX/APAP […]325 mg, NTX 1.5 mg): 0
AEs present ([3]; 48 h, combined doses): 1
